Laboratory results from patent publication US8217042B2, “Pyridopyrazines and their use as modulators of kinases” (Zentaris GmbH, priority 2005, dated 2012).

Experiments:
[1] = target: T1, PI3Kalpha (Homo sapiens, UniProt P42336); experiment: Cell-free kinase assay (ALPHA technology), PI3K-ALPHA; type: biochemical; details: 100 μM ATP, recombinant human kinase
T1 construct: in some cases as full-length kinases, in some cases as truncated fragments; purchased Upstate 14-602
Procedure: (§1) The inhibitory effect of the inventive compounds was tested on various human serine/threonine kinases, tyrosine kinases and lipid kinases in enzymatic assays. Recombinant human kinases, for example Erk2, PI3Kalpha, -beta, -gamma, -delta, p38alpha, p38gamma, Jnk1, Jnk2 and others were used, in some cases as full-length kinases, in some cases as truncated fragments—but at least consisting of the functional kinase domains. The commercial kinase proteins (Proqinase, Upstate) were used as recombinant fusion proteins with GST (glutathione S-transferase) tag or His tag. Depending on the substrate type, the different kinase reactions were quantified by means of suitable ALPHA™ beads (PerkinElmer).
(§2) The substrate testing on the Erk assay is described in detail below. Selected test results of the Erk2, PI3Kalpha assays are cited below. […] The kinase reaction was then stopped by adding 10 μl of the ALPHA bead mix (10 μg/ml, #6760617/PerkinElmer), pre-incubated with anti-phospho MBP antibody (320 μM, #05-429/Upstate), in 25 mM Tris, 200 mM NaCl, 100 mM EDTA and 0.3% BSA, and left to stand overnight. • b) PI3K-ALPHAs (e.g. PI3Kalpha): The test substance, 1 ng of PI3Kalpha (#14-602, Upstate), 100 μM ATP and 20 μM PIP2 substrate (#P4508, Echelon) on a 384-well Optiplate (Perkin Elmer) for 1 h in 50 mM Hepes, 50 mM NaCl, 5 mM MgCl2, 0.05% Chaps, 5 mM DTT at pH 7.4. Subsequently, the kinase reaction was stopped by adding the ALPHA bead mix (10 μg/ml, #6760603/PerkinElmer), preincubated with 1 nM GST:Grp1 fusion protein (Upstate) and 15 nM biotinylated PIP3 (#C-39B6/Echelon) in 50 mM Hepes, 50 mM NaCl, 50 mM EDTA and 0.1% BSA, and left to stand overnight.
(§3) The fluorescence was detected the next morning in a Fusion™ alpha instrument (Perkin Elmer).
(§4) The calculation of % inhibition values per substance concentration was done by means of the following formula from the raw data determined in the Fusion™ alpha:
(§5) The controls were each determined 8 times, the substance samples each twice. 0% control contained neither any ATP nor any substrate; the 100% control contained no test substance. The IC50 values were determined with GraphPadPrism.

[2] = test system: Jnk1 + Jnk2; experiment: Cell-free kinase assay (ALPHA technology), Jnk1 + Jnk2; type: biochemical; details: at 10 μM or 100 μM* ATP, recombinant human kinases
Procedure: as §1, with “(PerkinElmer). […]” for “(PerkinElmer).”
as §3, §4, §5

[3] = target: T2, p38alpha (Homo sapiens, UniProt Q16539); experiment: Cell-free kinase assay (ALPHA technology), p38alpha; type: biochemical; details: at 10 μM or 100 μM* ATP, recombinant human kinase
T2 construct: in some cases as full-length kinases, in some cases as truncated fragments
T2 sequence (Q16539 whole entry, the tested form may be a part): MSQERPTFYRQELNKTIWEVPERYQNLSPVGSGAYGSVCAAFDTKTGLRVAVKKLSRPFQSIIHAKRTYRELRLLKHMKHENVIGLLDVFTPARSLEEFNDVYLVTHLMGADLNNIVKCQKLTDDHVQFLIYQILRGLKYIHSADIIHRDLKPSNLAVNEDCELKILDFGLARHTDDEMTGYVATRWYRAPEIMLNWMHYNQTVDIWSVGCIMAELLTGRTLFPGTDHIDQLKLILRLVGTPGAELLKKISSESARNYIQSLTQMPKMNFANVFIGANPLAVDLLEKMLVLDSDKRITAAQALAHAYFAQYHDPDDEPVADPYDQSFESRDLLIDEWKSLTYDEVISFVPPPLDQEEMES
Procedure: as §1, with “(PerkinElmer). […]” for “(PerkinElmer).”
as §3, §4, §5

[4] = target: T3, Erk2; experiment: Cell-free kinase assay (ALPHA technology), Erk2-ALPHA; type: biochemical; details: 10 μM ATP, recombinant human kinase
T3 construct: in some cases as full-length kinases, in some cases as truncated fragments; purchased Upstate 14-173
T3 sequence (P63085 whole entry, the tested form may be a part): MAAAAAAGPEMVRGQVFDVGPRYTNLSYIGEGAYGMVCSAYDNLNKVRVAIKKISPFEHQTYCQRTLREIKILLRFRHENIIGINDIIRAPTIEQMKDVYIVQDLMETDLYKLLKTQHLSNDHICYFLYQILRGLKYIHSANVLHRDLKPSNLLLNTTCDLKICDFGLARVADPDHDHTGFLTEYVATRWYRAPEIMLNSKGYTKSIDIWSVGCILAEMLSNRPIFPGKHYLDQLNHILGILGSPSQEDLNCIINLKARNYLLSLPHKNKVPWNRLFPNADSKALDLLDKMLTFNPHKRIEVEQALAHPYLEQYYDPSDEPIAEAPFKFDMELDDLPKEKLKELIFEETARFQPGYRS
Procedure: as §1, §2, §3, §4, §5

[5] = test system: Erk →pRsk; experiment: Cellular substrate phosphorylation (Western blotting), Erk substrate Rsk1; type: cell-based; details: 5 h, tumour cell line
Procedure: (§6) This method enables a statement of whether the kinase modulator investigated achieves the desired effect in a cellular context too, i.e., in this case, a substrate protein downstream of the target kinase is examined for its phosphorylation status. To this end, the cells incubated with substance are lysed and the overall protein is separated on a reducing polyacrylamide gel. Subsequently, the proteins are transferred by means of Western blotting to a PVDF membrane and the substrate bands sought are made visible with specific antibodies and a suitable detection method. The substrate proteins downstream of the target kinases are detected simultaneously with an anti-phospho antibody which is specific in each case and simultaneously a total antibody which recognizes the substrate total protein. The duplex technology of the ODYSSEY imager (LiCOR) enables this simultaneous measurement. The intensity of the total substrate bands is employed to normalize and quantify the phosphorylation inhibition or activation.
(§7) Suitable tumour cell lines (e.g. BxPC3, Hct116 or MDA MB468) were seeded into 6-well microtitre plates in a defined cell count (e.g. 350 000 cells/well for BxPC3 and Hct116) in the particular standard complete media and then incubated overnight in an incubator at 37° C., 5% CO2 and 95% air humidity. The cells were then incubated further for a further 24 h under reduced-serum conditions, i.e. in the particular medium except at only 0.25% serum. The test substances were made up as stock solutions (10 mM) in DMSO and incubated with the cells at final concentrations of 5, 15.8 and 50 μM for 5 h. This was followed by cell lysis in 25 mM Tris, 150 mM NaCl, 10 mM sodium pyrophosphate, 2 mM EGTA, 25 mM beta-glycerophosphate, 25 mM NaF, 10% glycerol, 0.75% NP-40, 100 μM NaVO4 buffer. After protein quantification by means of BCA (bicinchonic acid protein assay kit, Sigma) assay, amounts of protein of about 20 μg per track were separated on a Lammli polyacrylamide gel and then transferred onto a PVDF membrane (Millipore) by means of semi-dry Western blotting at 0.8 mA/cm^2 for 1 h. This was followed by prehybridization of the membrane for 1 hour in I-block reagent (Applied Biosystems) and overnight incubation with the specific antibodies. To determine the Erk and PI3K inhibition, the next substrates Rsk1 downstream were detected with the total antibody (Rsk #sc-231g C-21, Santa Cruz) and the phospho antibody (Phospho-p90RSK (S380) #9341, NEB Cell Signalling) and Akt with the total antibody (Akt1 #sc-20, Santa Cruz) and the phospho antibody (Phospho-Akt (Ser 473) #9271, NEB Cell Signaling). After the membrane had been washed, the secondary antibodies were incubated with anti-rabbit IR Dye 800 (#611-732-127, Rockland) for the phospho antibody and anti-goat Alexa Fluor 680 (#A-21081, […]) for the total protein antibody. After incubation for 30 min at room temperature in the dark, the hybridization of the detection antibody was detected on the membrane by scanning in an ODYSSEY imager (LiCOR).

[6] = test system: PI3K →pAkt; experiment: Cellular substrate phosphorylation (Western blotting), PI3K substrate Akt; type: cell-based; details: 5 h, tumour cell line
Procedure: as §6, §7

[7] = test system: Hct116; experiment: XTT assay, anti-proliferative action, Hct116; type: cell-based; details: Homo sapiens, HCT-116, 45 h, Hct116 cells, 45 h incubation
Procedure: (§8) The principle of this test is based on the intracellular reduction of the tetrazolium dye XTT (sodium 3′-[1-(phenylaminocarbonyl)-3,4-tetrazolium]bis(4-methoxy-6-nitro)benzenenesulphonic acid, Sigma) to a formazan dye by mitochondrial dehydrogenases.
(§9) The dye is formed only by metabolically active cells; its photometrically measurable intensity is a quantitative indicator for the presence of living cells. The reduction in the dye formation as a result of incubation of the cells with substances serves as a parameter for the anti-proliferative action.
(§10) The tumour cell lines (ATCC) were seeded in 96-well microtitre plates in a defined cell count (5000 cells/well for BxPC3 and Hct116; 10 000 cells/well for MDA MB468), and then incubated overnight in an incubator at 37° C., 5% CO2 and 95% air humidity. The test substances were made up as stock solutions (10 mM) in DMSO. […] The cell plates were then incubated for 45 h in an incubator at 37° C., 5% CO2 and 95% air humidity.
(§11) For the detection reaction, the XTT substrate was admixed with PMS (N-methyldibenzopyrazine methylsulphate, Sigma) and added to the cells, so as to result in a final concentration of 325 μg of XTT/ml and 2.5 μg PMS/ml. The mixture was then incubated for 3 h at 37° C., 95% air humidity. Subsequently the formazan salt formed by cellular dehydrogenases was quantified at an absorption of 490 nm.
(§12) The evaluation of the % inhibition values was done by means of the following formula from the values for the optical densities measured in each case at 490 nm:
(§13) The controls were determined 8 times each, the substance samples twice each. 0% control contained no cells; the 100% control contained no test substance. The EC50 values were determined with GraphPadPrism.

[8] = test system: BxPC3; experiment: XTT assay, anti-proliferative action, BxPC3; type: cell-based; details: BxPC3 cells, 45 h incubation
Procedure: as §8, §9, §10, §11, §12, §13

[9] = test system: MDA-MB468; experiment: XTT assay, anti-proliferative action, MDA-MB468; type: cell-based; details: MDA-MB468 cells, 45 h incubation
Procedure: as §8, §9, §10, §11, §12, §13

T1 sequence (P42336 whole entry, the tested form may be a part): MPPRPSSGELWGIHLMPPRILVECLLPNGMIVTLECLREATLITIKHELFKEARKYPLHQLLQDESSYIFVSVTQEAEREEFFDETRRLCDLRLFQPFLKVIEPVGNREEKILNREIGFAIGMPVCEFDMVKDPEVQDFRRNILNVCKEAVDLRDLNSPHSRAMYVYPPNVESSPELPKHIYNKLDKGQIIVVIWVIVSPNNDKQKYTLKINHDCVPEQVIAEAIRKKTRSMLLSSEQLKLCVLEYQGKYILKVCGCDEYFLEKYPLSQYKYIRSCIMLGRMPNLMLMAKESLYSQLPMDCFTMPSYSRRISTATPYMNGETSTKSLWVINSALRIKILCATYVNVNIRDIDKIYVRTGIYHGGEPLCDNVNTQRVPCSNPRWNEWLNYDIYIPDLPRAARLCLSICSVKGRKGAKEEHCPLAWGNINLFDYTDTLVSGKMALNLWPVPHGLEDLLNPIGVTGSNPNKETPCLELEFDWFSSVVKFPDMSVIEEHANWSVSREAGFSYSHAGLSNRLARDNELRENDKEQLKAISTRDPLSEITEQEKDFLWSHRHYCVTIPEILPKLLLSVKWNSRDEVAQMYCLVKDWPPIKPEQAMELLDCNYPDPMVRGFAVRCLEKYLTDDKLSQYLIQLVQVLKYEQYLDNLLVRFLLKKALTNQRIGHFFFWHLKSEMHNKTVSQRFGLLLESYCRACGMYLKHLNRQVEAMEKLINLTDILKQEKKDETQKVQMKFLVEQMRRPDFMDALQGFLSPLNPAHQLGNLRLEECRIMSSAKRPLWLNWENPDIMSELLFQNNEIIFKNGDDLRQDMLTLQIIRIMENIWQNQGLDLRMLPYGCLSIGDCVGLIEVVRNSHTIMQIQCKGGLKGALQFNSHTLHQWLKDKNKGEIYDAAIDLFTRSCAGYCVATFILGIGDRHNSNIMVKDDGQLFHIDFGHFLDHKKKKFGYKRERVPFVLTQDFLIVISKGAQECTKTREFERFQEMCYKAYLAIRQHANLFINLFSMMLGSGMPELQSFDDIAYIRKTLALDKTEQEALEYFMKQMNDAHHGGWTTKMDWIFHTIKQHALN
T1 sequence (P27986 whole entry partner, the tested form may be a part): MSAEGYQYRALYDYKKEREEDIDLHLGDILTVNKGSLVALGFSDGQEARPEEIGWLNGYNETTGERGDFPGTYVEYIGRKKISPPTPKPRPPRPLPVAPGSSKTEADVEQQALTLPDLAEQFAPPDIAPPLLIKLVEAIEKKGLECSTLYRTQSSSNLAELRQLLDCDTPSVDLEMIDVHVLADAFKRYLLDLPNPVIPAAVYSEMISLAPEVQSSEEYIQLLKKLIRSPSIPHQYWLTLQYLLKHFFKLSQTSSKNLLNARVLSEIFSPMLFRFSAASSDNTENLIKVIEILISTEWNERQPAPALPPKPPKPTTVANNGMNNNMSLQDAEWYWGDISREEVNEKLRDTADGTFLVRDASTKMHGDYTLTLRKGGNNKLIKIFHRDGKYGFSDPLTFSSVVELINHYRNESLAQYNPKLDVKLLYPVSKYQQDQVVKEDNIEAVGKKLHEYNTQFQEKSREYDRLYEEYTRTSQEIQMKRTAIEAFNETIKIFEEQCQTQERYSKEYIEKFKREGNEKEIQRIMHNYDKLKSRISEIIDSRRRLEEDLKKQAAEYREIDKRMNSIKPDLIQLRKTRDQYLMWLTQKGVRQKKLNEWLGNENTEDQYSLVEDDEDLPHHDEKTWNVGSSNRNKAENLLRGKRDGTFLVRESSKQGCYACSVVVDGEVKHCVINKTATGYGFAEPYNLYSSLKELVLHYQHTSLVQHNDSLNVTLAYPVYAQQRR

Compound	IC50 [1]	IC50 [2]	melting point	IC50 [3]	IC50 [4]	EC50 [7]	EC50 [8]	EC50 [9]	EC50 ([8]; Homo sapiens, BXPC-3, 45 h)	EC50 ([9]; Homo sapiens, MDA-MB-468, 45 h)	inhibition at 50 µM [5]	inhibition at 50 µM [6]
CCNC(=O)Nc1ccc2ncc(Nc3ccc(CN4CCCCC4)cc3)nc2n1 [Compound 51, 1-Ethyl-3-[3-(4-piperidin-1-ylmethylphenylamino)pyrido[2,3-b]pyrazin-6-yl]urea]	7.5 µM	> 31.6 µM	221 to 224 °C	> 100 µM	19.1 µM	–	–	–	–	–	–	–
CCNC(=O)Nc1ccc2ncc(-c3cccc(OC(=O)OCCOC)c3)nc2n1 [Compound 16, 3-[6-(3-Ethylurea)pyrido[2,3-b]pyrazin-3-yl]phenyl 2-methoxyethyl carbonate]	3.3 µM	5.6 µM	–	–	0.513 µM	11 µM	–	–	> 25 µM	11 µM	–	–
CCNC(=O)Nc1ccc2ncc(-c3ccc(OC(=O)OCCOC)c(OC)c3)nc2n1 [Compound 32, 4-[6-(3-Ethylurea)pyrido[2,3-b]pyrazin-3-yl]-2-methoxyphenyl 2-methoxyethyl carbonate]	1.3 µM	4.2 µM	–	–	0.824 µM	2.2 µM	–	–	5.9 µM	4.5 µM	100%	90%
CONC(=O)Nc1ccc2ncc(-c3ccc(O)c(OC)c3)nc2n1 [Compound 61, 1-Methoxy-3-[3-(4-hydroxy-3-methoxy-phenyl)-pyrido[2,3-b]pyrazin-6-yl]-urea]	1.5 µM	2.1 µM	–	> 100 µM	0.3 µM	6 µM	–	–	–	7.1 µM	–	–
CCNC(=O)Nc1ccc(-c2cnc3ccc(NC(=O)NCC)nc3n2)cc1 [Compound 23, 1-Ethyl-3-{3-[4-(3-ethylurea)phenyl]pyrido[2,3-b]pyrazin-6-yl}urea]	1.3 µM	5.7 µM	> 350 °C (dec.)	–	1.9 µM	16 µM	–	–	> 50 µM	> 25 µM	0%	70%
CCNC(=O)Nc1ccc2ncc(Nc3ccc(S(C)(=O)=O)cc3)nc2n1 [Compound 48, 1-Ethyl-3-[3-(4-methanesulphonylphenylamino)pyrido[2,3-b]pyrazin-6-yl]urea]	1.1 µM	> 31.6 µM	275 to 280 °C	> 100 µM	> 100 µM	–	–	–	–	–	–	–
CCNC(=O)Nc1ccc2ncc(Nc3cccc(C(=O)NC)c3)nc2n1 [Compound 50, 3-[6-(3-Ethylurea)pyrido[2,3-b]pyrazin-3-ylamino]-N-methylbenzamide]	0.683 µM	> 31.6 µM	228 to 234 °C	18.1 µM	4.7 µM	–	–	–	–	–	–	–

Further lines, with some results ahead:

IC50 [1]	IC50 [2]	melting point	IC50 [3]	IC50 [4]	EC50 [7]	EC50 [8]	EC50 [9]	EC50 ([8]; Homo sapiens, BXPC-3, 45 h)	EC50 ([9]; Homo sapiens, MDA-MB-468, 45 h)	Compound	inhibition at 50 µM [5]	inhibition at 50 µM [6]
–	2.9 µM	230 to 232 °C	–	–	–	–	–	–	–	CCNC(=O)Nc1ccc2ncc(-c3ccc(OC(=O)OCCOC)cc3)nc2n1 [Compound 10, 4-[6-(3-Ethylurea)pyrido[2,3-b]pyrazin-3-yl]phenyl(2-methoxyethyl)carbonate]	100%	100%
1.3 µM	3.1 µM	–	–	0.272 µM	9.4 µM	> 20 µM	15.5 µM	–	–	CCNC(=O)Nc1ccc2ncc(-c3ccc(OC(=O)OCCOC)cc3)nc2n1 [Compound 56, 4-[6-(3-Ethylurea)pyrido[2,3-b]pyrazin-3-yl]phenyl 2-methoxyethyl carbonate p-toluenesulphonate]	–	–
11.8 µM	> 100 µM	–	–	0.167 µM	3.4 µM	–	–	> 25 µM	> 25 µM	CCNC(=O)Nc1ccc2ncc(-c3ccc(OC(=O)OCC(C)C)cc3)nc2n1 [Compound 17, 4-[6-(3-Ethylurea)pyrido[2,3-b]pyrazin-3-yl]phenyl isobutyl carbonate]	–	–
–	> 100 µM	243 to 245 °C	–	–	–	–	–	–	–	CCNC(=O)Nc1ccc2ncc(-c3ccc(OC(=O)OC)cc3)nc2n1 [Compound 9, 4-[6-(3-Ethylurea)pyrido[2,3-b]pyrazin-3-yl]phenyl methyl carbonate]	90%	50%
